Experimental data taken from PubChem BioAssay AID2060493 (Molecular Pharmacology Branch, DTP, NCI, 2025).
pIC50: −log10 of the molar value. Values belong to the compound of their own block, whether it stands above or below them.

System: 616215-338-R-J1-PDC tumor spheroids, viability
Test: Anticancer human tumor 616215-338-R-J1-PDC patient-derived colon adenocarcinoma cell line growth inhibition [GQUAD]
Conditions: spheroids with HUVEC and MSC; for pIC50: curve of first compound; for viability, T/C: stronger effect = lower value
How it was run: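 Viability of tumor cells grown as complex spheroids with endothelial and stromal cells, exposed to drug combinations. Top concentration at or near clinical Cmax (else 10 microM), diluted in half-log increments.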

[1] = second compound 0.0316 µM, first compound 0.0316 µM
[2] = second compound 0.0316 µM, first compound 0.1 µM
[3] = second compound 0.0316 µM, first compound 0.316 µM
[4] = second compound 0.0316 µM, first compound 1 µM
[5] = second compound 0.0316 µM, first compound 3.16 µM
[6] = second compound 0.0316 µM, first compound 10 µM
[7] = second compound 0.1 µM, first compound 0.0316 µM
[8] = second compound 0.1 µM, first compound 0.1 µM
[9] = second compound 0.1 µM, first compound 0.316 µM
[10] = second compound 0.1 µM, first compound 1 µM
[11] = second compound 0.1 µM, first compound 3.16 µM
[12] = second compound 0.1 µM, first compound 10 µM
[13] = second compound 0.316 µM, first compound 0.0316 µM
[14] = second compound 0.316 µM, first compound 0.1 µM
[15] = second compound 0.316 µM, first compound 0.316 µM
[16] = second compound 0.316 µM, first compound 1 µM
[17] = second compound 0.316 µM, first compound 3.16 µM
[18] = second compound 0.316 µM, first compound 10 µM
[19] = second compound 1 µM, first compound 0.0316 µM
[20] = second compound 1 µM, first compound 0.1 µM
[21] = second compound 1 µM, first compound 0.316 µM
[22] = second compound 1 µM, first compound 1 µM
[23] = second compound 1 µM, first compound 3.16 µM
[24] = second compound 1 µM, first compound 10 µM
[25] = second compound 3.16 µM, first compound 0.0316 µM
[26] = second compound 3.16 µM, first compound 0.1 µM
[27] = second compound 3.16 µM, first compound 0.316 µM
[28] = second compound 3.16 µM, first compound 1 µM
[29] = second compound 3.16 µM, first compound 3.16 µM
[30] = second compound 3.16 µM, first compound 10 µM
[31] = second compound 10 µM, first compound 0.0316 µM
[32] = second compound 10 µM, first compound 0.1 µM
[33] = second compound 10 µM, first compound 0.316 µM
[34] = second compound 10 µM, first compound 1 µM
[35] = second compound 10 µM, first compound 3.16 µM
[36] = second compound 10 µM, first compound 10 µM
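Also: spheroids exposed to agents for 7 days before readout.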
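For viability, T/C in this document: percent viability relative to DMSO vehicle control wells taken as 100%.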

Structure (SMILES): CC1COCCN1c1cc(C2(S(C)(=N)=O)CC2)nc(-c2ccnc3[nH]ccc23)n1 (stereo not drawn) + CN(C)c1ccc(Nc2c3ccc(NC(=O)CCN4CCCC4)cc3nc3cc(NC(=O)CCN4CCCC4)ccc23)cc1
- pIC50 (second compound 0.0316 µM): 5.55
- pIC50 (second compound 0.1 µM): 5.31
- pIC50 (second compound 0.316 µM): 5.25
- pIC50 (second compound 1 µM): 5.28
- pIC50 (second compound 3.16 µM): 5.29
- pIC50 (second compound 10 µM): 5.46
- viability, T/C [1]: 116%
- viability, T/C [2]: 102%
- viability, T/C [3]: 103%
- viability, T/C [4]: 97.6%
- viability, T/C [5]: 44.4%
- viability, T/C [6]: 31.5%
- viability, T/C [7]: 105%
- viability, T/C [8]: 97%
- viability, T/C [9]: 104%
- viability, T/C [10]: 98%
- viability, T/C [11]: 63.5%
- viability, T/C [12]: 28.2%
- viability, T/C [13]: 98.1%
- viability, T/C [14]: 106%
- viability, T/C [15]: 102%
- viability, T/C [16]: 96.6%
- viability, T/C [17]: 69.9%
- viability, T/C [18]: 30.1%
- viability, T/C [19]: 93.2%
- viability, T/C [20]: 97.3%
- viability, T/C [21]: 99.3%
- viability, T/C [22]: 95.9%
- viability, T/C [23]: 69.2%
- viability, T/C [24]: 24.8%
- viability, T/C [25]: 99%
- viability, T/C [26]: 102%
- viability, T/C [27]: 94.3%
- viability, T/C [28]: 97.7%
- viability, T/C [29]: 68.1%
- viability, T/C [30]: 25.9%
- viability, T/C [31]: 94%
- viability, T/C [32]: 94%
- viability, T/C [33]: 89.2%
- viability, T/C [34]: 86.1%
- viability, T/C [35]: 51.7%
- viability, T/C [36]: 29.6%

Structure (SMILES): COc1ccc([C@@H](O)c2cc(-c3ncnc4cc(N5CCOCC5)ccc34)c(F)cc2Cl)nn1 + CN(C)c1ccc(Nc2c3ccc(NC(=O)CCN4CCCC4)cc3nc3cc(NC(=O)CCN4CCCC4)ccc23)cc1
- pIC50 (second compound 0.0316 µM): < 5.00
- pIC50 (second compound 0.1 µM): < 5.00
- pIC50 (second compound 0.316 µM): < 5.00
- pIC50 (second compound 1 µM): 5.09
- pIC50 (second compound 3.16 µM): 5.22
- pIC50 (second compound 10 µM): 5.47
- viability, T/C [1]: 105%
- viability, T/C [2]: 99.2%
- viability, T/C [3]: 101%
- viability, T/C [4]: 98.1%
- viability, T/C [5]: 93.1%
- viability, T/C [6]: 58.6%
- viability, T/C [7]: 96.3%
- viability, T/C [8]: 94.6%
- viability, T/C [9]: 104%
- viability, T/C [10]: 102%
- viability, T/C [11]: 87.6%
- viability, T/C [12]: 55.6%
- viability, T/C [13]: 101%
- viability, T/C [14]: 93%
- viability, T/C [15]: 102%
- viability, T/C [16]: 103%
- viability, T/C [17]: 97.7%
- viability, T/C [18]: 54.6%
- viability, T/C [19]: 97.7%
- viability, T/C [20]: 100%
- viability, T/C [21]: 94.3%
- viability, T/C [22]: 92.7%
- viability, T/C [23]: 89.1%
- viability, T/C [24]: 41.3%
- viability, T/C [25]: 91%
- viability, T/C [26]: 89.9%
- viability, T/C [27]: 90.4%
- viability, T/C [28]: 101%
- viability, T/C [29]: 74.9%
- viability, T/C [30]: 30.6%
- viability, T/C [31]: 91.3%
- viability, T/C [32]: 90.8%
- viability, T/C [33]: 93.7%
- viability, T/C [34]: 64.2%
- viability, T/C [35]: 57.6%
- viability, T/C [36]: 10.2%

- pIC50 (second compound 0.0316 µM): 6.97
- pIC50 (second compound 0.1 µM): > 7.50
- pIC50 (second compound 0.316 µM): > 7.50
- pIC50 (second compound 1 µM): > 7.50
- pIC50 (second compound 3.16 µM): > 7.50
- pIC50 (second compound 10 µM): > 7.50
Structure (SMILES): CC1COCCN1c1cc(C2(O)CC3CCC(C2)O3)c2cnn(-c3ccn[nH]3)c2n1 (stereo not drawn) + Cc1cnc(CNC(=O)c2c(=O)c3ccc(N4CCCN(C)CC4)nc3n3c2sc2ccccc23)cn1
- viability, T/C [1]: 76.3%
- viability, T/C [2]: 52.5%
- viability, T/C [3]: 29.4%
- viability, T/C [4]: 27.6%
- viability, T/C [5]: 25.2%
- viability, T/C [6]: 16.3%
- viability, T/C [7]: 38%
- viability, T/C [8]: 35.2%
- viability, T/C [9]: 33%
- viability, T/C [10]: 24.1%
- viability, T/C [11]: 20.8%
- viability, T/C [12]: 25.4%
- viability, T/C [13]: 43%
- viability, T/C [14]: 30.8%
- viability, T/C [15]: 23.8%
- viability, T/C [16]: 19.7%
- viability, T/C [17]: 18.9%
- viability, T/C [18]: 13.2%
- viability, T/C [19]: 29.5%
- viability, T/C [20]: 32.9%
- viability, T/C [21]: 22.2%
- viability, T/C [22]: 28.2%
- viability, T/C [23]: 22.3%
- viability, T/C [24]: 17.6%
- viability, T/C [25]: 42.9%
- viability, T/C [26]: 22%
- viability, T/C [27]: 18.1%
- viability, T/C [28]: 20.7%
- viability, T/C [29]: 15.8%
- viability, T/C [30]: 5.2%
- viability, T/C [31]: 24.5%
- viability, T/C [32]: 28.1%
- viability, T/C [33]: 29.5%
- viability, T/C [34]: 14.7%
- viability, T/C [35]: 11.2%
- viability, T/C [36]: 0.29%

Structure (SMILES): O=c1[nH]cc(F)c(=O)[nH]1 + Cc1[nH]c2ccc(F)cc2c1-c1nc2c3cccnc3c3ncccc3c2[nH]1
- pIC50 (second compound 0.0316 µM): 6.16
- pIC50 (second compound 0.1 µM): 6.42
- pIC50 (second compound 0.316 µM): 6.23
- pIC50 (second compound 1 µM): 6.14
- pIC50 (second compound 3.16 µM): 6.47
- pIC50 (second compound 10 µM): 6.54
- viability, T/C [1]: 97.7%
- viability, T/C [2]: 96.9%
- viability, T/C [3]: 64.3%
- viability, T/C [4]: 43%
- viability, T/C [5]: 48.1%
- viability, T/C [6]: 37%
- viability, T/C [7]: 102%
- viability, T/C [8]: 94.4%
- viability, T/C [9]: 51.8%
- viability, T/C [10]: 41.3%
- viability, T/C [11]: 36.3%
- viability, T/C [12]: 35.1%
- viability, T/C [13]: 99.6%
- viability, T/C [14]: 92.6%
- viability, T/C [15]: 57.1%
- viability, T/C [16]: 47%
- viability, T/C [17]: 37%
- viability, T/C [18]: 34.2%
- viability, T/C [19]: 96%
- viability, T/C [20]: 94.8%
- viability, T/C [21]: 65.1%
- viability, T/C [22]: 46.1%
- viability, T/C [23]: 39.2%
- viability, T/C [24]: 43.6%
- viability, T/C [25]: 98.3%
- viability, T/C [26]: 82.9%
- viability, T/C [27]: 51.5%
- viability, T/C [28]: 37.6%
- viability, T/C [29]: 38.8%
- viability, T/C [30]: 42.7%
- viability, T/C [31]: 102%
- viability, T/C [32]: 83.8%
- viability, T/C [33]: 46.7%
- viability, T/C [34]: 38.9%
- viability, T/C [35]: 34.3%
- viability, T/C [36]: 36.2%
